From US20250099414A1, “COMPOSITIONS AND METHODS FOR TREATING TRIPLE-NEGATIVE BREAST CANCER” (The Board of Regents of the University of Oklahoma, priority 2019, published 2025)
pIC50, pKd: −log10 of the molar value. Entries after “also recorded” stand apart in the source; their conditions may differ. Read-outs that look alike come from different tables or passages of the source.

Tests used:
[1] = tested on: 4T1; experiment: ANXA5-CMB TNBC cell cytotoxicity, 4T1; assay type: cell-based, murine; details: 24 hours
From the text: (§1) While the cytotoxic activity of the ANXA5-CMB conjugate is excellent against TNBC cells, the cytotoxicity of the conjugate must be tested against healthy vascular and mammary cells.

[2] = tested on: EMT6; experiment: ANXA5-CMB TNBC cell cytotoxicity, EMT6; assay type: cell-based, murine; details: 24 hours
From the text: as §1

[3] = tested on: mouse EMT6 TNBC cells; details: for pIC50: read-out: IC50, cell viability, 72 h, concentration of DM1 as free drug or in the conjugate, 2 mM calcium
[4] = tested on: EMT6 cells; experiment: ICD study: cytotoxicity (cell death) after 24 hours; assay type: cell-based, murine; details: 10 nM DM1
[5] = tested on: healthy MCF10A cells; experiment: ANXA5-DM1 and ANXA5 cell viability assay (AlamarBlue), healthy mammary cells; details: for pIC50: read-out: IC50, cell viability, 72 h, 100% confluent cells
[6] = tested on: mouse 4T1 TNBC cells
[7] = tested on: 4T1 cells; experiment: ANXA5-VPA TNBC cytotoxicity (Alamar Blue), 4T1; assay type: cell-based, murine; details: 48 hours, VPA in the conjugate or free VPA, 10^−4 to 10 mM
Protocol: (§2) After confirming the conjugation of VPA to ANXA5, the cytotoxicity of the ANXA5-VPA conjugate was tested in two murine TNBC cell lines (EMT6 and 4T1). […] EMT6 and 4T1 cells were seeded at 5,000 cells/well in 96 well plates and treated 48 hours after seeding. Cells were treated with 10^−4 to 10 mM of VPA in the ANXA5-VPA conjugate or free VPA growth medium fully supplemented with 2 mM of calcium to promote ANXA5 binding. After 48 hours, cell viability was analyzed via a fluorescent Alamar Blue assay. Percent viability was determined by normalizing the control (0 mM VPA) to 100% and comparing each treatment group to the control (n=3).

[8] = tested on: EMT6 cells; experiment: ANXA5-VPA TNBC cytotoxicity (Alamar Blue), EMT6; assay type: cell-based, murine; details: 48 hours, VPA in the conjugate or free VPA, 10^−4 to 10 mM
Protocol: as §2

[9] = cited from earlier work
[10] = tested on: HUVEC cells; experiment: ANXA5-CMB healthy cell cytotoxicity (resazurin), HUVEC; details: dose up to 100 μM CMB in the conjugate; 90-100% confluency; 2 mM calcium; 24 hours
Protocol: (§3) Cell viability was assayed by a resazurin assay (n=3-6). […] Cells were treated with 0-100 μM of CMB in the ANXA5-CMB conjugate in growth media fully supplemented with 2 mM calcium to promote ANXA5 binding. After 72 hours, an Alamar Blue assay was utilized to determine viability. Percent viability was determined by comparing treatment groups to the untreated control (0 μM).
(§4) Cells were treated with 0-100 μM CMB in the ANXA5-CMB conjugate in fully supplemented growth medium with 2 mM calcium. Cells were grown to 90-100% confluency. […] Cell viability was measured via an Alamar Blue assay and viability was compared to the control (0 μM) after 24 hours. Data is presented as mean±SD (n=4-8). Cells were treated with 0-100 μM CMB in the ANXA5-CMB conjugate in fully supplemented growth medium with 2 mM calcium. Cells were grown to 90-100% confluency. […] Cell viability was measured via an Alamar Blue assay and viability was compared to the control (μM) after 24 hours. Data is presented as mean±SD (n=4-8).

[11] = tested on: MCF10A cells; experiment: ANXA5-CMB healthy cell cytotoxicity (resazurin), MCF10A; assay type: cell-based, human; details: 90-100% confluency; 2 mM calcium; 24 hours
Protocol: as §3, §4

[12] = tested on: murine TNBC cells; experiment: ANXA5-CMB TNBC cell cytotoxicity, statements on both lines together; assay type: cell-based; details: at 1 μM
From the text: as §1

[13] = tested on: EMT6 cells; experiment: Immunogenic cell death: calreticulin surface expression (flow cytometry); assay type: cell-based, murine; details: 10 nM DM1; 24 h
Protocol: To determine if ANXA5-DM1 induces calreticulin surface expression, flow cytometry was utilized. EMT6 and 4T1 cells were seeded at 25,000 cells/well in 24 well plates and treated 24 h after seeding. […] After 24 h, media was collected into microcentrifuge tubes to collect dead cells. To ensure there would be enough cells, three wells were combined to be one sample. Cells in the plates were then washed with PBS, and 100 μL of trypsin was added to each well. Once 90% of the cells were removed from the plate (2-5 min), cells were added to the microcentrifuge tubes and centrifuged at 500×g for 5 min. Cells were resuspended in 200 μL of 0.5% BSA-PBS and counted to have at least 100,000 cells per sample. Cells were then fixed with 4% paraformaldehyde (PFA, Thermo Fisher Scientific, Waltham MA, USA) for 20 min at 4° C. Cells were then washed two times with 500 μl of 0.5% BSA-PBS at 500×g for 5 minutes. […] After incubation, cells were analyzed on a BD Biosciences Accuri C6 flow cytometer (Franklin Lakes, New Jersey, USA) with excitation at 488 nm, and a 533/30 bandpass filter was used to capture 10,000 gated events per sample. Data was collected and analyzed with BD C6 Accuri software. One sample was composed of three wells, and each sample was analyzed three times. […]

[14] = tested on: EMT6 cells; experiment: Immunogenic cell death: ATP release (luminescence kit); assay type: cell-based, murine; details: 24 h
Protocol: To determine if ANXA5-DM1 induces ATP release from cells after treatment, an ATP luminescence kit (Molecular Probes, Eugene, OR, USA) was utilized according to the manufacturer's instructions. […] After 24 h, 10 μL of cell media was added to 90 μL of standard reaction solution in a white plate. Luminescence reading was obtained from the plate reader, and ATP concentration was calculated by comparing the luminescence reading to a standard curve.

[15] = tested on: murine TNBC cell lines (EMT6 and 4T1); experiment: ANXA5-VPA TNBC cytotoxicity, statement on both lines together; assay type: cell-based; details: 48 hours
Protocol: as §2

[16] = tested on: EMT6-strain TNBC cells with PS externalization; experiment: ANXA5 colorimetric binding (modified indirect ELISA), EMT6; set-up: species or system murine; details: 0-20 nM biotinylated ANXA5; 2 mM Ca2+; read-out: dissociation constant of the specific binding
Protocol: (§5) Binding strength was analyzed via a modified indirect ELISA. Cells (50,000 cells/well) were grown onto 24 well plates and fixed with 0.025% glutaraldehyde once cancer cells were 70-80% confluent, or MCF10A noncancerous cells were 100% confluent. Cancer cells were blocked with 0.5% BSA for 1 h at 37° C. Cells were incubated with 0-20 nM of biotinylated ANXA5 for 2 h at 37° C. and 5% CO2. ANXA5 was biotinylated with a Roche biotin protein labeling kit (Roche, Basel, Switzerland), and the level of biotinylation was quantified with a Pierce Biotin Quantification kit (Pierce Biotechnology, Waltham, MA, USA) per manufacturer's instructions. Cells were washed four times with 0.5% BSA to remove unbound ANXA5. […] The supernatant was collected, and the absorbance was read at 450 nm on a BioTek Synergy HT microtiter plate reader (Winooski, VT). […] The dissociation constant was determined using the nonlinear regression one-site total and nonspecific binding model in GraphPad Prism version 9 software (Graph Pad, San Diego California, USA).
(§6) To confirm the ability of the ANXA5 to bind to PS on the surface of TNBC cells, equilibrium binding experiments with increasing concentrations of biotinylated ANXA5 were used. […] After subtracting out 0 nM ANXA5 background absorbance, the non-specific binding was essentially 0, meaning ANXA5 was not binding to the EMT6 and 4T1 cells when Ca^2+ was absent. […]

[17] = tested on: healthy MCF10A human breast cells; experiment: ANXA5 colorimetric binding (modified indirect ELISA), MCF10A
Protocol: as §5, §6

[18] = tested on: 4T1-strain TNBC cells with PS externalization; experiment: ANXA5 colorimetric binding (modified indirect ELISA), 4T1; set-up: species or system murine; details: 0-20 nM biotinylated ANXA5; 2 mM Ca2+; read-out: dissociation constant of the specific binding
Protocol: as §5, §6

[19] = read-out: IC50, cell viability, 72 h, concentration of DM1 as free drug or in the conjugate, 2 mM calcium

With `O=C(O)CCCc1ccc(N(CCCl)CCCl)cc1` [CMB, Chlorambucil, reference compound] the pIC50 ([1]; Mus musculus, 4T1) was 3.81 and the pIC50 ([2]; Mus musculus, EMT6) was 3.99.

For `COc1cc2cc(c1Cl)N(C)C(=O)C[C@H](OC(=O)[C@H](C)N(C)C(=O)CCS)[C@]1(C)O[C@H]1[C@H](C)[C@@H]1C[C@@](O)(NC(=O)O1)[C@H](OC)/C=C/C=C(\C)C2` [DM1, Mertansine, reference compound], the pIC50 [3] was 7.55, the “cell death (cytotoxicity)” value [4] was “significantly increased cell death” and the pIC50 ([5]; concentration of DM1) was 6.80. The pIC50 [6, 19] was 6.49.

For `CCCC(CCC)C(=O)O` [VPA, Valproic acid], the IC50 concentration [7] is given as “could not be obtained with a dose of up to 10 mM; also recorded: could not be calculated”, the IC50 concentration [8] is given as “could not be obtained with a dose of up to 10 mM; also recorded: could not be calculated” and the pIC50 ([9]; 72-96 hours, read-out: concentration required to achieve an IC50 value) is given as less than 3.00. For the same compound, the “dose required to be effective in vitro” value ([9]; delivered alone, after 72 hours) was 1 to 10 mM.

In the case of “ANXA5-CMB: chlorambucil linked to ANXA5 lysine residues via EDC crosslinking chemistry”, the pIC50 [1] was 5.57, the “IC50 ratio (CMB / ANXA5-CMB)” value [1] was 57 and the “effect on cell viability” value [10] was “did not impact viability”. For the same compound, the pIC50 [2] was 6.38, the “IC50 ratio (CMB / ANXA5-CMB)” value [2] was 241 and the pIC50 [11] was 5.22. For the same compound, the cytotoxicity [12] was 100%.

In the case of “ANXA5-DM1: mertansine (DM1) linked to lysine residues of recombinant annexin A5 with the crosslinker sulfo-SMCC”, the “potency (IC50) relative to free DM1” value ([3]; 72 h viability assay) was “more than 2 orders of magnitude”, the pIC50 [3] was 9.68 and the “cell death (cytotoxicity)” value [4] was “significantly increased cell death”. The “calreticulin surface expression (median fluorescent intensity)” value [13] was “significantly increased calreticulin surface expression; also recorded: significant increase”, the “cytotoxicity to healthy breast cells” value ([5]; 100% confluence, compared with free DM1, doses up to 48 μM) was “significantly less cytotoxic; also recorded: does not have cytotoxic effects” and the pIC50 ([5]; concentration of DM1) was less than 5.30. The pIC50 ([5]; doses up to 48 μM) was less than 4.32, the “potency (IC50) relative to free DM1” value ([6]; 72 h viability assay) was “more than 2 orders of magnitude” and the pIC50 [6, 19] was 9.07. The pIC50 ([6]; read-out: equivalent IC50 based on the ANXA5 concentration, assuming 4 moles DM1 per mole ANXA5, from 0.85 nM DM1) was 9.68, the ATP release ([14]; 10 nM DM1, versus free DM1 or control) was “significantly increased ATP release; also recorded: significant increase” and the “ATP released relative to free DM1” value ([14]; 10 nM) was roughly 10 times.

For ANXA5-VPA, the pIC50 ([7]; read-out: IC50 concentration) was roughly 5.00, the “lowest dose with significantly increased cell death compared to the free drug control” value [15] was 97 nM and the pIC50 ([8]; read-out: IC50 concentration) was roughly 5.00.

With “ANXA5: recombinant annexin A5 produced in E. coli; binds phosphatidylserine in a Ca2+-dependent manner” the pKd [16] was 8.94, the “dissociation constant (Kd)” value ([17]; cells grown to confluence) was “not detectable” and the “specific binding of ANXA5 to the cells” value ([17]; total minus nonspecific binding) was “no specific binding; also recorded: no ANXA5-PS binding was observed”. For the same compound, the pKd [18] was 8.64.
